Entries after “also recorded” stand apart in the source; their conditions may differ.
Legend:
Jurkat cells [1] = assay: Morphology and viability of precursor-treated Jurkat cells; type: cell-based, human
NG108-15 cells [2] = assay: Uptake of mannosamine precursors and conversion to sialic acids (precursor pool, gangliosides, glycoproteins) in NG108-15 cells, HPLC; type: cell-based, mouse neuroblastoma/rat glioma hybrid
Procedure: (§1) Cells were harvested using hypertonic Ca^2+ - and Mg^2+ -free phosphate-buffered saline containing 1 mM EDTA, collected by centrifugation, and homogenized in ice-cold water using a Potter-Elvehjem glass/Teflon homogenizer. Methanol (2.6 volumes) was added, the suspension mixed and brought to ambient temperature, then chloroform (1.3 volumes, based on the original homogenate) was added and the suspension mixed vigorously. The suspension was centrifuged 30 min at 2,000×g. After collecting the supernatant, the pellet (containing precipitated proteins) was resuspended in water or concentrated ammonium hydroxide and a portion was used for protein assay (BCA, Pierce, Rockford, Ill.). The supernatant was partitioned by adjusting the chloroform-methanol-water ratio to 4:8:5.6 by addition of water, mixing thoroughly, and centrifuging as above. The upper phase was collected and a portion was subjected to reverse phase chromatography, using Sep-Pak C18 cartridges (Waters, Milford, Mass.), to isolate gangliosides (Schnaar, Methods Enzymol. 230:371, 1994).
(§2) To quantify and identify sialic acids, a portion of resolublized protein, organic/aqueous soluble pool, or reverse-phase purified gangliosides was evaporated to dryness in a 500-μl polypropylene tube and 20 μl of 0.1 M HCl/0.25 M NaCl was added. One Ampliwax bead (Perkin Elmer Corp, Foster City, Calif.) per reaction was added to block evaporation, and the sample hydrolyzed for 3 h at 80° C. Released sialic acids were analyzed by injecting an aliquot (1-10 μl) onto a Dionex high pressure liquid chromatography system (Dionex Corporation, Sunnyvale, Calif.) using a HPIC-AS6 column and a pulsed amperometric detector. Elution solutions were: A, 0.75 mM NaOH; B, 200 mM NaOH; and C, 400 mM sodium acetate in 50 mM NaOH. NeuAc and NeuPr were resolved by elution with 40% A, 50% B, 10% C for 15 min at 1 ml/min. NeuGc was resolved in separate injections using step gradient elution: 0-1.8 min, 18% A, 50% B, 32% C; 2-10 min, 40% B, 60% C. Sialic acids were identified by comparison of their elution time with those of standard NeuAc, NeuPr and NeuGc and were quantified in comparison to a standard curve of commercial NeuAc (for NeuAc and NeuPr) or NeuGc.
(§3) To confirm that the quantified peaks represented sialic acids, 10 μl of acid hydrolysates were treated with 1 μl of 1 M sodium phosphate (pH 7.2) and 10 μl of 0.1 M NaOH. Neutralized samples were incubated at 37° C. for 2 h with or without 0.9 U of N-acetylneuraminic acid aldolase (Sigma), 32 μM NADH and 0.1 μg lactate dehydrogenase. Sialic acid content in the ganglioside and glycoprotein fractions is expressed per mg of total cell protein. Precursor pool sialic acid (sialic acid plus CMP-sialic acid) was calculated by subtracting the ganglioside value from the organic/aqueous pool value, both expressed per mg of cell protein.
Sialic acid is biosynthesized from the precursor sugar N-acetylmannosamine (FIG. 2). In the present invention, sialic acids are converted on live neuronal cells from NeuAc, which is a key determinant for MAG binding, to NeuGc, which is non-permissive for MAG binding. A potential NeuGc precursor, N-glycolylmannosamine monoacetate (ManNGcMA, FIG. 1, R1 =H) was tested for its ability to generate altered sialic acids in neuronal and non-neuronal cells. N-propanoylmannosamine (ManNPr) and other N-acyl mannosamine derivatives have been used to modify glycoprotein associated sialic acids to the corresponding N-acylneuraminic acid. N-propanoyl-mannosamine (ManNPr), was used as a positive control. […] Cell pellets were fractioned into lipid associated, protein associated, and intracellular (lipid and cytoplasmic which may consist of oligosaccharide-bound, free, or CMP-activated sialic acid) sialic acids and hydrolyzed to release sialic acid. The hydrolyzed samples were then analyzed by HPLC to determine sialic acid content. […]

NG108-15 cells [3] = system: NG108-15 cells
Procedure: Cell growth rates were determined in control cultures (.box-solid.), in cultures treated with 0.08 mM (.circle-solid.), 0.25 mM (.smallcircle.), or 1 mM (.quadrature.) ManNGcPA, and in cultures treated with 0.25 mM (.tangle-solidup.) or 1 mM (Δ) glucose pentaacetate.
NG108-15 cells were maintained in Dulbecco's modified Eagle's medium (high glucose formulation) containing 5% iron-enriched calf serum, 100 μM hypoxanthine, 16 μM thymidine, and 5 μM aminopterin. […] Both cell types were cultured at 37° C. in a humidified atmosphere of 90% air/10% CO2. For treatment with sialic acid precursors, mannosamine derivatives were diluted into the appropriate medium and filter sterilized. […] In experiments testing ManNGcPA, all cells (control and experimental) were grown in the presence of 0.5% (v/v) DMSO, the carrier for ManNGcPA.

Jurkat cells [4] = assay: Uptake of mannosamine precursors and conversion to sialic acids in Jurkat cells, HPLC; type: cell-based, human; settings: 20 mM precursor, 48 h
Procedure: as §1, §2, §3
Sialic acid is biosynthesized from the precursor sugar N-acetylmannosamine (FIG. 2). In the present invention, sialic acids are converted on live neuronal cells from NeuAc, which is a key determinant for MAG binding, to NeuGc, which is non-permissive for MAG binding. A potential NeuGc precursor, N-glycolylmannosamine monoacetate (ManNGcMA, FIG. 1, R1 =H) was tested for its ability to generate altered sialic acids in neuronal and non-neuronal cells. N-propanoylmannosamine (ManNPr) and other N-acyl mannosamine derivatives have been used to modify glycoprotein associated sialic acids to the corresponding N-acylneuraminic acid. N-propanoyl-mannosamine (ManNPr), was used as a positive control. Jurkat human lymphoma cells and NG108-15 cells (rodent neuroblastoma/glioma hybrid cells) were incubated in 20 mM synthetic precursor or control precursor (N-acetylmannosamine, ManNAc) for 48 h, then harvested. Cell pellets were fractioned into lipid associated, protein associated, and intracellular (lipid and cytoplasmic which may consist of oligosaccharide-bound, free, or CMP-activated sialic acid) sialic acids and hydrolyzed to release sialic acid. […]

sialoadhesin = settings: cited from earlier work
[5] = system: myelin-associated glycoprotein (MAG); settings: cited from earlier work
NG108-15 cells [6] = settings: cited from earlier work
[7] = NG108-15, 20 mM precursor, 48 h

CCC(=O)N[C@@H]1C(O)O[C@H](CO)[C@@H](O)[C@@H]1O (stereo partly shown) [ManNPr, N-Propanoylmannosamine, reference compound]
alteration of cell morphology or viability (Jurkat cells [1]): did not seem to alter cell morphology or viability significantly
incorporation into gangliosides and glycoproteins as NeuPr (NG108-15 cells [2]): efficiently incorporated
increase in intracellular sialic acid (precursor pool) (NG108-15 cells [2]; 20 mM precursor, 48 h): 4 fold
increase in total glycoprotein sialic acid (NG108-15 cells [2]; 20 mM precursor, 48 h): ≈ 1.4 fold
sialic acid precursor pool as NeuPr (NG108-15 cells [2]; 20 mM precursor, 48 h): > 95%
ganglioside (lipid associated) sialic acid in the form of NeuPr (NG108-15 cells [2]; [7]): 70% and ≈ 70%
intracellular sialic acid pool as NeuPr (NG108-15 cells [2]; [7]): composed predominantly
levels of intracellular sialic acid (NG108-15 cells [2]; [7]): high levels
size of the ganglioside pool (NG108-15 cells [2]; [7]): remained relatively constant
levels of intracellular sialic acid (NG108-15 cells [2]; NG108-15, 20 mM precursor, 48 h, listed as N-propanoylmannosamine): high levels of intracellular sialic acid similar to that observed with N-acetylmannosamine treatment
alteration of cell morphology or viability (NG108-15 cells [3]): did not seem to alter cell morphology or viability significantly
glycoprotein associated sialic acid in the form of NeuPr (Jurkat cells [4]): ≈ 50%
intracellular sialic acid pool as NeuPr (Jurkat cells [4]): composed predominantly
levels of intracellular sialic acid (Jurkat cells [4]): high levels
lipid associated sialic acid in the form of NeuPr (Jurkat cells [4]): 33%
levels of intracellular sialic acid (Jurkat cells [4]; listed as N-propanoylmannosamine): high levels of intracellular sialic acid similar to that observed with N-acetylmannosamine treatment

CC(=O)N[C@H]1[C@H]([C@H](O)[C@H](O)CO)OC(O)(C(=O)O)C[C@@H]1O (stereo partly shown) [NeuAc, N-acetylneuraminic acid]
sialoadhesin binding (sialoadhesin): MAG and sialoadhesin bind NeuAc
support of MAG binding / recognition [5]: support MAG binding; also recorded: MAG and sialoadhesin bind NeuAc

B1: MAG: Myelin associated glycoprotein (MAG), a sialic acid binding lectin and member of the siglec family (protein, UniProt P20916 20-626, looked up)
Myelin-associated glycoprotein: GHWGAWMPSSISAFEGTCVSIPCRFDFPDELRPAVVHGVWYFNSPYPKNYPPVVFKSRTQVVHESFQGRSRLLGDLGLRNCTLLLSNVSPELGGKYYFRGDLGGYNQYTFSEHSVLDIVNTPNIVVPPEVVAGTEVEVSCMVPDNCPELRPELSWLGHEGLGEPAVLGRLREDEGTWVQVSLLHFVPTREANGHRLGCQASFPNTTLQFEGYASMDVKYPPVIVEMNSSVEAIEGSHVSLLCGADSNPPPLLTWMRDGTVLREAVAESLLLELEEVTPAEDGVYACLAENAYGQDNRTVGLSVMYAPWKPTVNGTMVAVEGETVSILCSTQSNPDPILTIFKEKQILSTVIYESELQLELPAVSPEDDGEYWCVAENQYGQRATAFNLSVEFAPVLLLESHCAAARDTVQCLCVVKSNPEPSVAFELPSRNVTVNESEREFVYSERSGLVLTSILTLRGQAQAPPRVICTARNLYGAKSLELPFQGAHRLMWAKIGPVGAVVAFAILIAIVCYITQTRRKKNVTESPSFSAGDNPPVLFSSDFRISGAPEKYESERRLGSERRLLGLRGEPPELDLSYSHSDLGKRPTKDSYTLTEELAEYAEIRVK
neurite outgrowth from NG108-15 cells (NG108-15 cells [6]): inhibited

Source: patent US6274568A, “Compounds for altering cell surface sialic acids and methods of use therefor” (priority 1999, dated 2001)
